US20250320506A1, “ULTR[…] M[…]-FREE […] CASCADED AMP[…] POSITIVE FEEDBACK” (Northwestern University, priority 2019, published 2025)

Tests used:
[1] = system: cell-free protein synthesis; experiment: titration of analyte against an unregulated reporter plasmid (pT7-sfGFP) in a cell-free gene expression reaction; assay type: biochemical, E. coli; settings: 100 μM CuSO4; transcription and translation in vitro
Source text: FIG. 4A-D. FIG. 4 illustrates various aspects of the biosensors of the present disclosure. (A) The “enriched” extract that contains the allosteric transcription factor can be mixed against a “blank” unenriched extract to modulate the concentration of the transcription factor in the reaction. (B) For tighter control and specificity of a cascaded system, if T7 RNA polymerase is used to drive expression of the allosteric transcription factor in the host strain of extract, an engineered variant of T7 RNAP may be used as the output of the regulated promoter. Exemplary T7 RNAP mutants are illustrated. […] The E. coli RNAP is used to express four T7 RNAP variants from a mock sensor plasmid (5 nM) that contains the consensus E. coli promoter J23119. The corresponding reporter plasmid is added at 5 nM. The kinetics of T7 RNAP synthesis lead to a time delay of about 20-30 minutes relative to a reaction that uses purified WT T7 RNAP. […] Reporter yields are from triplicates of four-hour sfGFP yields on a plate reader at 30° C. […]
A series of tuning experiments are next used to optimize the sensor. […] This experiment is an isothermal cell-free gene expression reaction held at 30° C. in a plate reader for ˜4 hours using an established set of physiochemical conditions to maximize protein production in general. […]

lead sensor = experiment: crosstalk between four metal-sensing aTFs using cell-free response; assay type: biochemical; settings: heatmap
Source text: FIG. 21. Design of mitigating cross-talk of sensors. Experimental measurement of crosstalk between four metal-sensing aTFs using cell-free response. Heatmap is colored more brightly to indicate stronger fluorescent signal.

Row | SMILES | effect on cell-free protein synthesis [1] | crosstalk (fluorescent signal) of metal-sensing aTF sensor with non-cognate metal (lead sensor)
1 | O=S(=O)([O-])[O-].[Cu+2] [CuSO4] | shuts down cell-free protein synthesis | –
2 | [Cd] [cadmium] | – | crosstalk for the lead sensor with cadmium
